Measured values: patent publication EP0423818B1, “Arylsulfatase” (Bristol-Myers Squibb Company, priority 1989, dated 1991)

Key:
[1] = tested on: Es-2 sulfatase; assay: Effect of enzyme inhibitors on sulfatase activity (protocol as for ions); assay type: biochemical, Streptomyces sp. T109-3
Experimental: (a) Optimum pH. The enzyme solution (0.6 u in 50 µl of 50 mM Tris-HCl, pH 7.5) was mixed with 100 µl each of the following buffers: 500 mM sodium acetate (pH 4.0-5.5), 500 mM Tris-maleate (pH 5.5-7.7), 500 mM Tris-HCl (pH 7.5-9.0), and 500 mM glycine-NaOH (pH 9.0-10.0). The substrate, p-nitrophenylsulfate, was similarly dissolved in each of the above buffers (1 mg/ml). A sample (150 µl) from the enzyme solution is mixed with the substrate (50 µl) in the same buffer, and the mixture was incubated for 30 minutes at 37°C. The enzyme activity in each buffer was determined spectrophotometrically by UV at 415 nm. […] (b) pH stability. The stock enzyme solution was dialyzed against water to remove salts. The enzyme solution was adjusted to 0.6 u/10 µl with Tris-HCl buffer (pH 7.5). This solution (10 µl) was mixed with 40 µl each of the buffer listed in (a) and incubated for 30 minutes at 30°C. The enzyme sample (50 µl) was mixed with 100 µl of 500 mM Tris-HCl (pH 9.0) and 50 µl of substrate in water (1mg/ml), and the mixture was incubated at 37°C for 30 minutes to determine the residual enzyme activity. […] (c) Optimum temperature. Enzyme (0.6 u) in 150 µl of 50 mM Tris-HCl (pH 9.0) were incubated with p-nitrophenylsulfate (1 mg/ml, 50 µl) in the same buffer (pH 9.0) for 30 minutes at various temperatures (200 µl each). […] (d) Temperature stability. Enzyme preparations (0.6 u) in 50 mM Tris-HCl (150 µl, pH 9.0) were incubated for 15 minutes at various temperatures and then cooled in an ice bath. p-Nitrophenylsulfate (1 mg/ml, 50 µl) was added to the enzyme solution, and the mixture was incubated for 30 minutes at 37°C. […] (e) Effect of ions. Enzyme (0.6 u), p-nitrophenyl sulfate 4 mM, and ion 1 mM were dissolved in 200 µl of Tris-HCl (50 mM). The solution was incubated for 30 minutes at 37°C. p-Nitrophenol released was spectrophotometrically assayed by UV at 415 nm.
(f) Effect of enzyme inhibitors. The protocol used in (e) was followed with the exception that 1 mM of an enzyme inhibitor was used instead of a metal ion.

[2] = tested on: sulfatase of the invention; assay: Substrate specificity: etoposide derivatives incubated with the enzyme, TLC analysis; assay type: biochemical, Streptomyces sp. T109-3; details: substrate 50 µl, 1 mg/ml; enzyme 0.6 u; 37°C for 30 minutes; silica gel TLC
Experimental: (h) Substrate specificity. Four etoposide derivatives were tested as substrate for the sulfatase of the invention. The substrates are: etoposide 4'-sulfate (III), 2",3"-di-O-acetyl-etoposide-4'-sulfate (IV), etoposide 2"-sulfate (V), and etoposide 3"-sulfate (VI). The substrate (50 µl, 1 mg/ml, MeOH:H2O = 1:1, pH 9.0) and the enzyme (50 µl, 0.6 u, 50 mM Tris-HCl, pH 7.5) were mixed and incubated at 37°C for 30 minutes. The mixture was then analyzed on a silica gel TLC plate using a solvent system consisting of chloroform-methanol (10:1 v/v).

[3] = background statement; compound disclosed in Japanese Kokai 88/192,793; cited from earlier work
[4] = tested on: Es-2 sulfatase; assay: EDTA treatment of the enzyme and recovery of activity by Ca2+; assay type: biochemical, Streptomyces sp. T109-3; details: 10 mM of EDTA followed by dialysis against water
Experimental: (a) Optimum pH. The enzyme solution (0.6 u in 50 µl of 50 mM Tris-HCl, pH 7.5) was mixed with 100 µl each of the following buffers: 500 mM sodium acetate (pH 4.0-5.5), 500 mM Tris-maleate (pH 5.5-7.7), 500 mM Tris-HCl (pH 7.5-9.0), and 500 mM glycine-NaOH (pH 9.0-10.0). The substrate, p-nitrophenylsulfate, was similarly dissolved in each of the above buffers (1 mg/ml). A sample (150 µl) from the enzyme solution is mixed with the substrate (50 µl) in the same buffer, and the mixture was incubated for 30 minutes at 37°C. The enzyme activity in each buffer was determined spectrophotometrically by UV at 415 nm. The optimal pH of the enzyme was thus determined to be about 9.0 (Fig. 1A). (b) pH stability. The stock enzyme solution was dialyzed against water to remove salts. The enzyme solution was adjusted to 0.6 u/10 µl with Tris-HCl buffer (pH 7.5). This solution (10 µl) was mixed with 40 µl each of the buffer listed in (a) and incubated for 30 minutes at 30°C. The enzyme sample (50 µl) was mixed with 100 µl of 500 mM Tris-HCl (pH 9.0) and 50 µl of substrate in water (1mg/ml), and the mixture was incubated at 37°C for 30 minutes to determine the residual enzyme activity. […] (c) Optimum temperature. Enzyme (0.6 u) in 150 µl of 50 mM Tris-HCl (pH 9.0) were incubated with p-nitrophenylsulfate (1 mg/ml, 50 µl) in the same buffer (pH 9.0) for 30 minutes at various temperatures (200 µl each). […]

[5] = tested on: Es-2 sulfatase; assay: Effect of metal ions on sulfatase activity (p-nitrophenyl sulfate hydrolysis, UV at 415 nm); assay type: biochemical, Streptomyces sp. T109-3; details: ion 1 mM; enzyme 0.6 u; p-nitrophenyl sulfate 4 mM; Tris-HCl 50 mM; 30 minutes at 37°C
Experimental: Sulfatase activity during purification is monitored by determining the conversion of p-nitrophenylsulfate into p-nitrophenol using spectrophotometric means. Specifically, the following assay method is used. 50 µl of a p-nitrophenylsulfate solution (1 mg/ml in 50 mM Tris-HCl, pH7.5), 50 µl of a sample, and 100 µl of 50 mM Tris-HCl, pH 7.5, are mixed and incubated for 30 minutes at 37°C. If the activity is weak, the incubation time is prolonged up to 18 hours. The liberated p-nitrophenol is determined spectrophotometrically at 415 nm. From standard curves of p-nitrophenol and protein concentrations, the unit or specific activity per mg of the enzyme is calculated. The protein concentration is determined by measuring the absorption at 280 nm throughout purification and, in case of homogeneous protein, by the Bradford method [Bradford, M., et al., Anal. Biochem., 1976, 72:248-254] using bovine serum albumin as the standard protein. A unit of sulfatase activity is defined as the amount of enzyme which can hydrolyze one nanomole of p-nitrophenyl sulfate to p-nitrophenol in one minute at 37°C at pH 7.5.
(§1) (a) Optimum pH. The enzyme solution (0.6 u in 50 µl of 50 mM Tris-HCl, pH 7.5) was mixed with 100 µl each of the following buffers: 500 mM sodium acetate (pH 4.0-5.5), 500 mM Tris-maleate (pH 5.5-7.7), 500 mM Tris-HCl (pH 7.5-9.0), and 500 mM glycine-NaOH (pH 9.0-10.0). The substrate, p-nitrophenylsulfate, was similarly dissolved in each of the above buffers (1 mg/ml). A sample (150 µl) from the enzyme solution is mixed with the substrate (50 µl) in the same buffer, and the mixture was incubated for 30 minutes at 37°C. The enzyme activity in each buffer was determined spectrophotometrically by UV at 415 nm. The optimal pH of the enzyme was thus determined to be about 9.0 (Fig. 1A). (b) pH stability. The stock enzyme solution was dialyzed against water to remove salts. The enzyme solution was adjusted to 0.6 u/10 µl with Tris-HCl buffer (pH 7.5). This solution (10 µl) was mixed with 40 µl each of the buffer listed in (a) and incubated for 30 minutes at 30°C. The enzyme sample (50 µl) was mixed with 100 µl of 500 mM Tris-HCl (pH 9.0) and 50 µl of substrate in water (1mg/ml), and the mixture was incubated at 37°C for 30 minutes to determine the residual enzyme activity. […] (c) Optimum temperature. Enzyme (0.6 u) in 150 µl of 50 mM Tris-HCl (pH 9.0) were incubated with p-nitrophenylsulfate (1 mg/ml, 50 µl) in the same buffer (pH 9.0) for 30 minutes at various temperatures (200 µl each). […] (d) Temperature stability. Enzyme preparations (0.6 u) in 50 mM Tris-HCl (150 µl, pH 9.0) were incubated for 15 minutes at various temperatures and then cooled in an ice bath. p-Nitrophenylsulfate (1 mg/ml, 50 µl) was added to the enzyme solution, and the mixture was incubated for 30 minutes at 37°C. The enzyme was stable below 30°C at pH 9.0 (Fig. 2B). (e) Effect of ions. Enzyme (0.6 u), p-nitrophenyl sulfate 4 mM, and ion 1 mM were dissolved in 200 µl of Tris-HCl (50 mM). The solution was incubated for 30 minutes at 37°C. p-Nitrophenol released was spectrophotometrically assayed by UV at 415 nm. […]

[6] = tested on: Es-2 sulfatase; assay: Effect of salts on sulfatase activity (protocol as for ions); assay type: biochemical, Streptomyces sp. T109-3; details: 5 mM of a salt; for % Inhibit.: p-nitrophenyl sulfate 4 mM, 30 minutes at 37°C
Experimental: as §1
(g) Effect of salts. The protocol used in (e) was followed, except that 5 mM of a salt was used instead of 1 mM of a metal ion. […]

[7] = 1 mM of an enzyme inhibitor, p-nitrophenyl sulfate 4 mM, 30 minutes at 37°C

Compound	% Inhibit. [1, 7]	Inhibit. (%) [5]	Rel. Activity (%) [5]	other results
O[C@H](CS)[C@H](O)CS (racemic) [Dithiothreitol]	34%			
c1cnc2c(c1)ccc1cccnc12 [1,10-Phenanthroline]	60%			
OCCS [2-Mercaptoethanol]	22%			
COc1cc([C@@H]2c3cc4c(cc3[C@@H](O[C@@H]3O[C@@H]5CO[C@@H](C)O[C@H]5[C@H](O)[C@H]3O)[C@H]3COC(=O)[C@H]23)OCO4)cc(OC)c1OS(=O)(=O)O [(III), etoposide 4'-sulfate]				substrate for the enzyme [2]: are not; cytotoxicity relative to etoposide [3]: much less cytotoxic than etoposide itself
COc1cc([C@@H]2c3cc4c(cc3[C@@H](O[C@@H]3O[C@@H]5CO[C@@H](C)O[C@H]5[C@H](OC(C)=O)[C@H]3OC(C)=O)[C@H]3COC(=O)[C@H]23)OCO4)cc(OC)c1OS(=O)(=O)O [(IV), 2",3"-di-O-acetyl-etoposide-4'-sulfate]				substrate for the enzyme [2]: are not
O=C(O)CC(O)(CC(=O)O)C(=O)O [Citrate]	87%			
N[C@@H](CS)C(=O)O [Cysteine]	18%			
O=C(O)CN(CCN(CC(=O)O)CC(=O)O)CC(=O)O [EDTA]				% Inhibit. ([1]; 1000 µM): 69%; sulfatase activity after treatment of the enzyme with EDTA [4]: the sulfatase activity disappeared
[Cl][Hg][Cl] [HgCl2]		100%	0%	
c1c[nH]cn1 [Imidazole]	14%			
O=C(O)CI [Iodoacetic acid]				% Inhibit. ([1]; 1000 µM): 96%
CCN1C(=O)C=CC1=O [N-Ethylmaleimide]	35%			
O=S(=O)(F)Cc1ccccc1 [Phenylmethanesulfonyl fluoride]	81%			
O=C(O)c1cc[c]([Hg][Cl])cc1 [p-Chloromercuribenzoic acid]	78%			
(NH4)2SO4				% Inhibit. [6]: 44%
AlCl3		33%	67%	
BaCl2		17%	83%	
CaCl2			213%	
CoCl2		66%	34%	
CuCl2		44%	56%	
FeCl2		88%	12%	
FeCl3		49%	51%	
K2HPO4				inhibition of sulfatase activity (in words) [6]: strongly inhibited; % Inhibit. [6]: 100%
K2SO4				% Inhibit. [6]: 36%
MnCl2		66%	34%	
NaCl				% Inhibit. [6]: 58%
NiCl2		41%	59%	
ZnCl2		82%	18%	
